The IC20 is the concentration at which the effect reaches the 20% level.

In one series the test system is Normal lung fibroblasts. As to the kind of experiment: Cytotoxicity on normal cells. Type of series: cell-based. Conditions: concentrations as high as 10 micromolar. The source says: (§1) 35 cell lines were identified as sensitive to apilimod-induced cytotoxicity.
The test system of series [1] is diffuse large B cell lymphoma cells. Briefly: Apotox-Glo Triplex assay (viability, apoptosis, necrosis). Conditions: 48 hours. Type of series: cell-based. The procedure: Apoptosis was quantified and distinguished from necrosis using the Apotox-Glo Triplex assay (Promega, Inc.) according to the manufacturer's instructions. In this assay, viability, apoptosis, and necrosis are assessed simultaneously using three different markers (GF-AFC, Caspase-3/7, and bis-AAF-R110, respectively).

The subject of the next series is HELA. The note with it: HELA (WO 2006/128129); cited from earlier work.
For a further series, the system named is U937. Conditions: U937 (WO 2006/128129); cited from earlier work.
For a further series, the system named is IL-12/IL-23 synthesis. Conditions: psoriasis, oral administration, open label (Wada et al. 2012); cited from earlier work.
In series [2] the test system is representative cancer cell line. As to the kind of experiment: Vacuolization of live cells. Type of series: cell-based. Conditions: 500 nM, 24 h.
A further series deals with Jurkat. Conditions: Jurkat (WO 2006/128129); cited from earlier work.
Series [3] has as its system peripheral blood mononuclear cells. The note with it: peripheral blood mononuclear cells (Wada et al. 2007); cited from earlier work.
The test system of another series is H4 neuroglioma cell line. As to the kind of experiment: Cyto-ID Autophagy detection. Type of series: cell-based, Human. The note with it: 72 hours of treatment. The source says:
Autophagy was quantified using the Cyto-ID Autophagy detection kit (Enzo) according to manufacturer's directions.

For series [4] the following is noted: active Crohn's disease, placebo-controlled (Sands et al. 2010); cited from earlier work.
The next series relates to THP-1. Conditions: THP-1 (WO 2006/128129); cited from earlier work.
In the next series the test system is SUDHL-4 cells. As to the kind of experiment: Screen of 93-drug library with and without apilimod (CellTiter-Glo 72 h). The note with it: Homo sapiens, SU-DHL-4. Type of series: cell-based. The source says: A manually curated library of 93 drugs including both FDA approved and unapproved drugs was used in the screen.
For orientation: In ATP-based viability assays light output follows the ATP content of the culture.

The subject of series [5] is 122 human cancer cell lines. As to the kind of experiment: Cancer cell line sensitivity screen (cell viability). Conditions: non-Hodgkin's Lymphoma cell lines; sensitive if IC50 less than 500 nM. Type of series: cell-based.
From the text: as §1
The most sensitive of those tested were non-Hodgkin's Lymphoma (NHL) cell lines. […] NHL represents a diverse group of hematopoietic malignancies that vary in severity, with subtypes ranging from slow growing to aggressive. Subtypes of NHL include diffuse large B cell lymphoma (DLBCL), Burkitt's lymphoma, mantle lymphoma, and follicular B cell lymphoma. DLBCL is divided into two subtypes, GCB and ABC, based on gene expression and cell of origin. The GCB are germinal center B cell type, arising from normal germinal center B cells, and the ABC are activated B cell type, arising from post-germinal center B cells in the process of differentiating into plasma cells.

In the case of `Cc1cccc(/C=N/Nc2cc(N3CCOCC3)nc(OCCc3ccccn3)n2)c1` [apilimod], the apilimod-induced cytotoxicity result in the series on Normal lung fibroblasts was “insensitive”. Moreover, in [1], the “apoptosis (Caspase-3/7 marker)” value is recorded as “increased apoptosis”. In addition, the cytotoxicity result (with HELA; with U937; in the series on Jurkat; in series [3]; with THP-1) was “not cytotoxic” each time. Also, the “immunomodulatory activity in patients” value in the series with IL-12/IL-23 synthesis is recorded as “showed immunomodulatory activity”. Further, the vacuolization entry in series [2] is recorded as “induces vacuolization”. In the series with H4 neuroglioma cell line, the “autophagy (autophagic vacuoles)” value is given as “induced autophagy in a dose-dependent manner”. Further, in series [4], the clinical efficacy result was “did not demonstrate efficacy over placebo”. Besides, the IC20 in the series on SUDHL-4 cells stood at 0.01 µM. In series [5], the “percentage of NHL cell lines tested that were sensitive” value was “over 50%”.

Source of the values: patent US11266654B2 (AI Therapeutics, Inc., priority 2014, dated 2022).
